Measured values published in PMC10600239, “Selective MCL-1 inhibitor ABBV-467 is efficacious in tumor models but is associated with cardiac troponin increases in patients” (Communications Medicine, 2023).
Where “and” joins values, the source holds several entries; their conditions need not be identical. Equal entries are not always repeated.

Test system: AMO-1 xenografts
Assay: AMO-1 xenograft efficacy (tumor volume, body weight)
Format: in vivo, mouse
Conditions: for % Weight Change (individual weights) / Weight, g (individual weights): individual animal, Day 21; for Xenograft AMO-1 (DSMZ) (mm³) Day 16 / Xenograft AMO-1 (DSMZ) (mm³) Day 19: tumor volume
Method: All animal studies were conducted in accordance with the guidelines approved by the Institutional Animal Care and Use Committees of AbbVie. The research protocol was approved by In Vivo Pharmacology at AbbVie prior to study initiation but was not publicly registered or disclosed. Female C.B-17 SCID-beige mice (AMO-1, OPM-2, NCI-H929, and OCI-AML2 xenografts) and female NSG mice (MV4-11-Red.Fluc systemic) were purchased from Charles River Laboratories (Wilmington, MA). Animals were housed in a light cycle-controlled room with HEPA filtration at 22 °C. Animals had nesting and climbing cage topper as the primary environmental enrichment. Animals were inoculated subcutaneously in the right flank with 5 × 10^6 (AMO-1, OPM-2, NCI-H929, and OCI-AML2) or intravenous (IV) with 5 × 10^6 (MV4-11-Red.Fluc). The inoculation volume (0.2 mL) comprised a 50:50 mixture of cells in growth media and Matrigel (BD Biosciences) for subcutaneous injections and 100% phosphate-buffered saline for IV administration. All cell lines used in this publication were authenticated using IDEXX for STR profiling as well as their IMPACT and human IMPACT panels for pathogen screening. Electronic calipers were used to measure the length and width of each tumor 2 to 3 times per week. Tumor volume was estimated by applying the following equation: volume = length × width^2/2. All groups remained blinded during measurements and dosing; only veterinary staff were aware of group identity. When tumors reached approximately 200 mm^3, mice were randomized by match and distributed into treatment and control groups. All xenograft trials were conducted using 5 to 10 mice per group, and all mice were ear tagged and monitored individually throughout the studies. […] Tumor burden in the systemic MV4-11-Red.Fluc experiment was measured using an IVIS® spectrum from PerkinElmer by taking the total photon flux of the entire dorsal side of an individual mouse. […] A background control mouse that was tumor naive but received D-Luciferin was placed in the upper left corner of each image. The total flux from this animal was subtracted from the total flux of each animal present in the image.
For in vivo studies, maximal tumor growth inhibition (TGI) was calculated as the greatest treatment response using the following equation: Maximal TGI = (1 − mean tumor volume of the treated group/mean tumor volume of the vehicle control group) × 100. The tumor growth delay (TGD) percentage was determined as the percentage increase of the median time period for the treatment group to reach an arbitrary tumor volume of 1000 mm^3 relative to the vehicle control group. […] A power analysis was conducted using historical data to determine the number of animals required to yield significance of 0.05 at a 30% difference. […] Data from experiments in vivo were analyzed using the student’s t-test for TGI values and the Mann–Whitney U test for TGD using Excel and GraphPad Prism. Fisher’s exact test was used to probe significance of differences in response frequency.

[1] = 25 mg/kg, Q7Dx2, IV, SCID-beige female mice, Day 91
[2] = Day 14, 6.25 mg/kg Q7Dx2 IV, control Group 01
[3] = Day 14, 25 mg/kg Q7Dx2 IV, control Group 01
[4] = Day 80, 25 mg/kg Q7Dx2 IV, SCID-beige female mice
[5] = Day 82, 25 mg/kg Q7Dx2 IV, SCID-beige female mice
[6] = SCID-beige female mice, 25 mg/kg Q7Dx2 IV, Day 47, remaining animals
[7] = SCID-beige female mice, 25 mg/kg Q7Dx2 IV, Day 75
[8] = SCID-beige female mice, 25 mg/kg Q7Dx2 IV, Day 88, surviving animals
[9] = control Group 01, 6.25 mg/kg Q7Dx2 IV
[10] = control Group 01, 25 mg/kg Q7Dx2 IV

## Cc1c(Cl)c2c(Cl)c(C)c1-c1c(-c3ccc(F)cc3)sc3ncnc(c13)O[C@@H](C(=O)O)Cc1cc(ccc1OCc1ccnc(-c3ccc(OC[C@H]4COCCO4)cc3)n1)OC[C@@H](CN1CCN(C)CC1)O2 [Compound A-1747745.0]
[1]
  Xenograft AMO-1 (DSMZ) tumor volume Day 91, Mean: 22.37 mm³
  Xenograft AMO-1 (DSMZ) tumor volume Day 91, Median: 22.37 mm³
  Xenograft AMO-1 (DSMZ) tumor volume Day 91, individual animal: 22 mm³
AMO-1 (DSMZ) xenograft, SCID-beige mouse, 6.25 mg/kg IV Q7Dx2
  % Mortality: 100.00%
AMO-1 (DSMZ) xenograft, SCID-beige mouse, 25 mg/kg IV Q7Dx2
  % Mortality: 100.00%
AMO-1 (DSMZ) xenograft, SCID-beige mouse, 25 mg/kg IV Q7Dx2, day 21
  % BW Loss: -2% (day 21)
[2]
  Body Weight Day 14, % T/C (mean): 96.25%
  Body Weight Day 14, % T/C (median): 96.25%
[3]
  Body Weight Day 14, % T/C (mean): 98.12%
  Body Weight Day 14, % T/C (median): 98.12%
[4]
  Xenograft AMO-1 (DSMZ) tumor volume, Mean: 10.80 mm³
  Xenograft AMO-1 (DSMZ) tumor volume, Median: 10.80 mm³
  Xenograft AMO-1 (DSMZ) tumor volume, individual animal: 11 mm³
[5]
  Xenograft AMO-1 (DSMZ) tumor volume, Mean: 12.07 mm³
  Xenograft AMO-1 (DSMZ) tumor volume, Median: 12.07 mm³
  Xenograft AMO-1 (DSMZ) tumor volume, individual animal: 12 mm³
SCID-beige female mice, 25 mg/kg Q7Dx2 IV, Day 47
  Xenograft AMO-1 (DSMZ) tumor volume Day 47 (individual animal): 8 mm³
[6]
  Xenograft AMO-1 (DSMZ) tumor volume Day 47, Mean: 8.10 mm³
  Xenograft AMO-1 (DSMZ) tumor volume Day 47, Median: 8.10 mm³
[7]
  Xenograft AMO-1 (DSMZ) Day 75 tumor volume, Mean: 13.50 mm³
  Xenograft AMO-1 (DSMZ) Day 75 tumor volume, Median: 13.50 mm³
  Xenograft AMO-1 (DSMZ) Day 75 tumor volume, individual animals: 14 mm³
SCID-beige female mice, 25 mg/kg Q7Dx2 IV, Day 88
  Xenograft AMO-1 (DSMZ) Day 88 (tumor volume, individual animals): 15 mm³
[8]
  Xenograft AMO-1 (DSMZ) Day 88, Mean: 14.75 mm³
  Xenograft AMO-1 (DSMZ) Day 88, Median: 14.75 mm³
Group mean tumor volume of remaining animals, SCID-beige female mice, 25 mg/kg Q7Dx2 IV, Day 84
  Xenograft AMO-1 (DSMZ) (mm³) Day 84, Mean: 5.32 mm³
Group mean, Day 16, 3.13 mg/kg QDx1 IV
  Xenograft AMO-1 (DSMZ) (mm³) Day 16 Mean: 205.11 mm³
Group mean, Day 16, 6.25 mg/kg QDx1 IV
  Xenograft AMO-1 (DSMZ) (mm³) Day 16 Mean: 172.06 mm³
Group mean, Day 19, 3.13 mg/kg QDx1 IV
  Xenograft AMO-1 (DSMZ) (mm³) Day 19 Mean: 192.25 mm³
Group mean, Day 19, 6.25 mg/kg QDx1 IV
  Xenograft AMO-1 (DSMZ) (mm³) Day 19 Mean: 133.62 mm³
Group mean, 25 mg/kg Q7Dx2 IV, SCID-beige mice, Day 70
  Xenograft AMO-1 (DSMZ) (mm³) Day 70, Mean: 24.72 mm³
Group median tumor volume of remaining animals, SCID-beige female mice, 25 mg/kg Q7Dx2 IV, Day 84
  Xenograft AMO-1 (DSMZ) (mm³) Day 84, Median: 5.32 mm³
Group median, Day 16, 3.13 mg/kg QDx1 IV
  Xenograft AMO-1 (DSMZ) (mm³) Day 16 Median: 207.59 mm³
Group median, Day 16, 6.25 mg/kg QDx1 IV
  Xenograft AMO-1 (DSMZ) (mm³) Day 16 Median: 173.79 mm³
Group median, Day 19, 3.13 mg/kg QDx1 IV
  Xenograft AMO-1 (DSMZ) (mm³) Day 19 Median: 202.67 mm³
Group median, Day 19, 6.25 mg/kg QDx1 IV
  Xenograft AMO-1 (DSMZ) (mm³) Day 19 Median: 134.81 mm³
Group median, 25 mg/kg Q7Dx2 IV, SCID-beige mice, Day 70
  Xenograft AMO-1 (DSMZ) (mm³) Day 70, Median: 24.72 mm³
Individual animal tumor volume, SCID-beige female mice, 25 mg/kg Q7Dx2 IV, Day 84
  Xenograft AMO-1 (DSMZ) (mm³) Day 84: 5.32 mm³
6.25 mg/kg IV Q7Dx2
  % Weight Change (individual weights): 0.65%
  Weight, g (individual weights): 22.14 g
25 mg/kg IV Q7Dx2
  % Weight Change (individual weights): -1.91%
  Weight, g (individual weights): 22.00 g
Individual animals, Day 14, 3.13 mg/kg QDx1 IV
  Body Weight (g) Day 14: 22 g
Individual animals, Day 14, 6.25 mg/kg QDx1 IV
  Body Weight (g) Day 14: 22 g
Individual animals, 25 mg/kg Q7Dx2 IV, SCID-beige mice, Day 70
  Xenograft AMO-1 (DSMZ) (mm³) Day 70: 25 mm³
Day 14, 3.13 mg/kg QDx1 IV
  Body Weight Day 14, % T/C (mean): 102.98%
  Body Weight Day 14, % T/C (median): 102.98%
Day 14, 6.25 mg/kg QDx1 IV
  Body Weight Day 14, % T/C (mean): 102.98%
  Body Weight Day 14, % T/C (median): 102.98%
Day 16, 3.13 mg/kg QDx1 IV
  Xenograft AMO-1 Day 16 % T/C (mean): 61.23%
  Xenograft AMO-1 Day 16 % T/C (median): 62.33%
Day 16, 6.25 mg/kg QDx1 IV
  Xenograft AMO-1 Day 16 % T/C (mean): 51.36%
  Xenograft AMO-1 Day 16 % T/C (median): 52.18%
Day 19, 3.13 mg/kg QDx1 IV
  Xenograft AMO-1 Day 19 % T/C (mean): 44.28%
  Xenograft AMO-1 Day 19 % T/C (median): 51.55%
Day 19, 6.25 mg/kg QDx1 IV
  Xenograft AMO-1 Day 19 % T/C (mean): 30.78%
  Xenograft AMO-1 Day 19 % T/C (median): 34.29%
[9]
  % T/C (mean), Body Weight Day 21: 96.87%
  % T/C (median), Body Weight Day 21: 96.87%
[10]
  % T/C (mean), Body Weight Day 21: 96.25%
  % T/C (median), Body Weight Day 21: 96.25%
mouse, in vivo, iv, 3.13 mg/kg
  Relative to initial body wt., %: 0.00%
mouse, in vivo, iv, 6.25 mg/kg
  Body Weight (g) Day 14 (individual animals): 22 g
  Body Weight (g) Day 14, Mean: 22.00 g
  Body Weight (g) Day 14, Median: 22.00 g
  Body Weight (g) Day 21: 22 g
  Body Weight (g) Day 21 Mean: 22.14 g
  Body Weight (g) Day 21 Median: 22.14 g
mouse, in vivo, iv, 25 mg/kg
  Body Weight (g) Day 14 (individual animals): 22 g
  Body Weight (g) Day 14, Mean: 22.43 g
  Body Weight (g) Day 14, Median: 22.43 g
  Body Weight (g) Day 21: 22 g
  Body Weight (g) Day 21 Mean: 22.00 g
  Body Weight (g) Day 21 Median: 22.00 g
Individual animals, Day 16, 3.13 mg/kg QDx1 IV
  Xenograft AMO-1 (DSMZ) (mm³) Day 16: 195 mm³ and 171 mm³ and 227 mm³ and 217 mm³ and 219 mm³ and 212 mm³ and 203 mm³ and 196 mm³
Individual animals, Day 16, 6.25 mg/kg QDx1 IV
  Xenograft AMO-1 (DSMZ) (mm³) Day 16: 158 mm³ and 174 mm³ (2×) and 187 mm³ and 182 mm³ and 167 mm³ and 173 mm³ and 160 mm³
Individual animals, Day 19, 3.13 mg/kg QDx1 IV
  Xenograft AMO-1 (DSMZ) (mm³) Day 19: 210 mm³ and 196 mm³ and 181 mm³ and 173 mm³ and 128 mm³ and 213 mm³ and 209 mm³ and 227 mm³
Individual animals, Day 19, 6.25 mg/kg QDx1 IV
  Xenograft AMO-1 (DSMZ) (mm³) Day 19: 142 mm³ and 122 mm³ and 113 mm³ and 105 mm³ and 128 mm³ and 144 mm³ and 162 mm³ and 152 mm³
